The structures appear in SMILES notation.

This assay addresses T1, human liver GK (Homo sapiens, UniProt P35557).
T1 construct: GST (glutathione S-transferase) (N); made in house; host or cells: E. coli
T1 sequence (P35557 1-466 isoform P35557-2): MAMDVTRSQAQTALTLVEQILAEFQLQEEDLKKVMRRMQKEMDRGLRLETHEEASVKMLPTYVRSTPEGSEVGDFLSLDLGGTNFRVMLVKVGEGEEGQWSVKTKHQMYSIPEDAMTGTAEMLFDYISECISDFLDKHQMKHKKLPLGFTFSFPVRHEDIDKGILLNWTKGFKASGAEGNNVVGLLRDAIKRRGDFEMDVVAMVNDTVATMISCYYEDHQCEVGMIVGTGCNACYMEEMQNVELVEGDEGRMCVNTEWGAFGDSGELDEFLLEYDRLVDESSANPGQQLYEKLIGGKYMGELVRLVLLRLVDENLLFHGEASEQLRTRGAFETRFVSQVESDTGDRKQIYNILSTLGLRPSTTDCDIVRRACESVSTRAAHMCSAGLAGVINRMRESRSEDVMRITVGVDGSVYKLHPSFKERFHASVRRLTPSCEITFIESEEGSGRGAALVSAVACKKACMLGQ
Put plainly: GK activation test. In kind it is biochemical. The conditions noted are these: test compound concentration needed to activate 50% of maximum activation ability; 4 mM 14C-labeled glucose, 2 mM ATP, room temperature, 20 minutes. The protocol: The GK activation test for the test compounds was performed by the method of Irwin A. Rose et al. (J. Biol. Chem. 1964 January; 239:12-7) with partial modifications.
The enzyme source used in this assay, human liver GK, was expressed in E. coli as a fusion protein with GST (glutathione S-transferase) added to the amino terminus and was purified using Glutathione Sepharose 4B (Amersham Biosciences).
The test was carried out using flat-bottom 96-well plates (Sumitomo Bakelite Co., Ltd.). A solution of the test compound in dimethyl sulfoxide (DMSO) and DMSO as a control were added to each well of the plates at a final DMSO concentration of 1%. 25 mM Hepes-KOH (pH=7.1), 25 mM KCl, 2 mM MgCl2, 2 mM ATP, 4 mM ^14C-labeled glucose (Muromachi Yakuhin) and 1 mM DTT (dithiothreitol) were further added at the indicated final concentrations, respectively. Finally, human liver GK was added at 0.24 microgram per well and the reaction was started. The reaction was carried out at room temperature.
After 20 minutes, AG1-X4 resin (BioRad) suspended in 25 mM Hepes-KOH (pH=7.1) was added and the reaction product, labeled glucose 6-phosphate, was allowed to bind thereto. The whole volume was transferred to MultiScreen plates (Millipore) and the resin was washed with water. Thereafter, the labeled glucose 6-phosphate binding to the resin was eluted with a 0.5 M NaCl solution. The labeling activity of the eluted labeled glucose 6-phosphate was measured as an index of GK activity.
The GK activity maximally activated by the test compound was described as maximum activation ability, and the test compound concentration needed to activate 50% of that ability was described as EC50.
What is called EC50 is the concentration giving half of the maximal effect. Low readings indicate a more potent agent, high ones a less potent agent. In the case of `CCOc1ccc(/C(=C\[C@H]2CCC(=O)N2)c2ccc(C3CC3)c(=O)[nH]2)cc1` [Example 4-6, 3-Cyclopropyl-6-{(E)-1-(4-ethoxyphenyl)-2-[(2R)-5-oxopyrrolidin-2-yl]ethenyl}pyridin-2(1H)-one], the half-maximal effective concentration (EC50) lay within 0.01 to 0.5 µM. Molecule `O=C1CC[C@H](/C=C(\c2ccc(C(F)(F)F)nc2)c2ccc(C3CC3)c(=O)[nH]2)N1` [Example 4-108, 3-Cyclopropyl-6-{(E)-2-[(2R)-5-oxopyrrolidin-2-yl]-1-[6-(trifluoromethyl)pyridin-3-yl]ethenyl}pyridin-2(1H)-one] yielded an EC50 of 0.5 to 3 µM. The figure for `CC(C)(C)c1ccc(/C(=C\[C@H]2CCC(=O)N2)c2ccc(C#N)c(=O)[nH]2)cc1` [Example 4-202, 6-{(E)-1-(4-tert-Butylphenyl)-2-[(2R)-5-oxopyrrolidin-2-yl]ethenyl}-2-oxo-1,2-dihydropyridine-3-carbonitrile] is 0.5 to 3 µM; for `CC(C)(C)c1ccc(C(C[C@H]2CCC(=O)N2)c2ccc(OC(F)F)c(=O)[nH]2)cc1` (single isomer, unassigned) [Example 4-247] it is 3 to 10 µM; for `CSc1ccc(C(C[C@H]2CCC(=O)C2)c2ccc(C)c(=O)[nH]2)cc1` (stereo partly drawn) [Example 2-22, 3-Methyl-6-{1-[4-(methylsulfanyl)phenyl]-2-[(1R)-3-oxocyclopentyl]ethyl}pyridin-2(1H)-one] it is 0.5 to 3 µM. In turn, `Cc1ccc(/C(=C/C2CCCC2)c2ccc(S(=O)(=O)CCCO)c(Cl)c2)[nH]c1=O` [Example 1-23, 6-[(E)-1-{3-Chloro-4-[(3-hydroxypropyl)sulfonyl]phenyl}-2-cyclopentylethenyl]-3-methylpyridin-2(1H)-one] displayed an EC50 of 0.01 to 0.5 µM. To `Cc1ccc(C(CC2CCOCC2)c2ccc(S(C)(=O)=O)cc2)[nH]c1=O` (centres unmarked) [Example 2-19, 3-Methyl-6-{1-[4-(methylsulfonyl)phenyl]-2-(tetrahydro-2H-pyran-4-yl)ethyl}pyridin-2(1H)-one] belongs 3 to 10 µM; to `CS(=O)(=O)c1cc(/C(=C\[C@H]2CCC(=O)N2)c2ccc(Cl)c(=O)[nH]2)ccc1C(F)F` [Example 4-157, 3-Chloro-6-{(E)-1-[4-(difluoromethyl)-3-(methylsulfonyl)phenyl]-2-[(2R)-5-oxopyrrolidin-2-yl]ethenyl}pyridin-2(1H)-one], 3 to 10 µM. In turn, `O=c1[nH]c(/C(=C/C2CCCC2)c2ccc(SC3CC3)cc2)ccc1-c1ccccc1` [Example 1-29, 6-{(E)-2-Cyclopentyl-1-[4-(cyclopropylsulfanyl)phenyl]ethenyl}-3-phenylpyridin-2(1H)-one] gave an EC50 of 0.01 to 0.5 µM. Consider `CCCCCc1ccc(/C(=C/[C@H]2CCC(=O)N2)c2ccc(C(C)(C)C)cc2)[nH]c1=O` [Example 4-193, 6-{(E)-1-(4-tert-Butylphenyl)-2-[(2R)-5-oxopyrrolidin-2-yl]ethenyl}-3-pentylpyridin-2(1H)-one], for which the EC50 lay in the range of 0.01 to 0.5 µM. `Cc1ccc(/C(=C/C2CCCC2)c2ccc(S(=O)(=O)N(C)CCO)cc2)[nH]c1=O` [Example 1-15, 4-[(E)-2-Cyclopentyl-1-(5-methyl-6-oxo-1,6-dihydropyridin-2-yl)ethenyl]-N-(2-hydroxyethyl)-N-methylbenzenesulfonamide] came in with an EC50 of 0.01 to 0.5 µM. On to `O=C1CC[C@H](/C=C(\c2ccc(OCCCO)c(Cl)c2)c2ccc(C(F)(F)F)c(=O)[nH]2)C1` [Example 1-81, 6-{(E)-1-[3-Chloro-4-(3-hydroxypropoxy)phenyl]-2-[(1S)-3-oxocyclopentyl]ethenyl}-3-(trifluoromethyl)pyridin-2(1H)-one], for which the EC50 is 0.5 to 3 µM.

As for `O=C1CC[C@H](/C=C(\c2cccc(SC3CC3)c2)c2ccc(Cl)c(=O)[nH]2)N1` [Example 4-36, 3-Chloro-6-{(E)-1-[3-(cyclopropylsulfanyl)phenyl]-2-[(2R)-5-oxopyrrolidin-2-yl]ethenyl}pyridin-2(1H)-one], the EC50 fell in the range of 3 to 10 µM. Turning to `CS(=O)(=O)c1ccc(/C(=C\C2CCCC2)c2ccc(Cl)c(=O)[nH]2)cc1` [Example 1-2, 3-Chloro-6-{(E)-2-Cyclopentyl-1-[4-(methylsulfonyl)phenyl]ethenyl}pyridin-2(1H)-one], the EC50 fell in the range of 0.5 to 3 µM. On to `CC(C)(C)c1ccc(C(SC2CCCC2)c2ccc(Cl)c(=O)[nH]2)cc1` (centres unmarked) [Example 7-4, 6-[(4-tert-Butylphenyl)(cyclopentylsulfanyl)methyl]-3-chloropyridin-2(1H)-one], for which the EC50 lay in the range of 0.5 to 3 µM. `CCOc1ccc(/C(=C\[C@H]2CCC(=O)N2)c2ccc(Cl)c(=O)[nH]2)cc1` [Example 4-48, 3-Chloro-6-{(E)-1-(4-ethoxyphenyl)-2-[(2R)-5-oxopyrrolidin-2-yl]ethenyl}pyridin-2(1H)-one] gave an EC50 of 0.5 to 3 µM.

As for `CC(C)(C)c1ccc(/C(=C\[C@H]2CCC(=O)N2)c2ccc(CCCO)c(=O)[nH]2)cc1` [Example 4-198, 6-{(E)-1-(4-tert-Butylphenyl)-2-[(2R)-5-oxopyrrolidin-2-yl]ethenyl}-3-(3-hydroxypropyl)pyridin-2(1H)-one], the EC50 fell in the range of 0.01 to 0.5 µM. As to `CCc1ccc(/C(=C\[C@H]2CCCN2C(C)=O)c2ccc(Cl)c(=O)[nH]2)cc1` [Example 4-47, 6-[(E)-2-[(2R)-1-Acetylpyrrolidin-2-yl]-1-(4-ethylphenyl)ethenyl]-3-chloropyridin-2(1H)-one], the EC50 is 0.5 to 3 µM. The molecule `CCN(CC)CCCCOc1ccc(/C(=C\[C@H]2CCC(=O)C2)c2ccc(C3CC3)c(=O)[nH]2)cc1Cl` [Example 1-80, 6-{(E)-1-{3-Chloro-4-[4-(diethylamino)butoxy]phenyl}-2-[(1S)-3-oxocyclopentyl]ethenyl}-3-cyclopropylpyridin-2(1H)-one] came in with an EC50 of 0.01 to 0.5 µM.

The molecule `O=C1CC[C@H](/C=C(\c2ccc(SCCCO)c(Cl)c2)c2ccc(C(F)(F)F)c(=O)[nH]2)C1` [Example 1-82, 6-{(E)-1-{3-Chloro-4-[(3-hydroxypropyl)sulfanyl]phenyl}-2-[(1S)-3-oxocyclopentyl]ethenyl}-3-(trifluoromethyl)pyridin-2(1H)-one] yielded an EC50 of 0.01 to 0.5 µM.

On to `CC(=O)N1CCC(/C=C(\c2ccc(S(C)(=O)=O)cc2)c2ccc(C3CC3)c(=O)[nH]2)CC1` [Example 4-43, 6-{(E)-2-(1-Acetylpiperidin-4-yl)-1-[4-(methylsulfonyl)phenyl]ethenyl}-3-cyclopropylpyridin-2(1H)-one], for which the EC50 is 3 to 10 µM. In the case of `Cc1ccc(C(C[C@H]2CCC(=O)N2)c2ccc(Cl)c(=O)[nH]2)cc1` (single isomer, unassigned) [Example 4-318], the EC50 lay within 3 to 10 µM. `Cc1ccc(/C(=C/C2CCCC2)c2ccc(S(=O)(=O)C3CC3)cc2)[nH]c1=O` [Example 1-11, 6-{(E)-2-Cyclopentyl-1-[4-(cyclopropylsulfonyl)phenyl]ethenyl}-3-methylpyridin-2(1H)-one] yielded an EC50 of 0.01 to 0.5 µM. In turn, `O=C1CC[C@H](/C=C(\c2ccc(C3CC3)cc2)c2ccc(C3CC3)c(=O)[nH]2)N1` [Example 4-268, 3-Cyclopropyl-6-{(E)-1-(4-cyclopropylphenyl)-2-[(2R)-5-oxopyrrolidin-2-yl]ethenyl}pyridin-2(1H)-one] showed an EC50 of 0.01 to 0.5 µM.

Take `CC(C)c1ccc(C(C[C@H]2CCC(=O)N2)c2ccc(C3CC3)c(=O)[nH]2)cc1Cl` (single isomer, unassigned) [Example 4-320]: the EC50 lay in the range of 0.01 to 0.5 µM.

Take `CCOc1ccc(/C(=C\[C@H]2CCC(=O)N2)c2ccc(Cl)c(=O)[nH]2)cc1Cl` [Example 4-2, 3-Chloro-6-{(E)-1-(3-chloro-4-ethoxyphenyl)-2-[(2R)-5-oxopyrrolidin-2-yl]ethenyl}pyridin-2(1H)-one]: the EC50 fell in the range of 0.5 to 3 µM.

`CCN(CC)CCCCOc1ccc(/C(=C\[C@H]2CCC(=O)N2)c2ccc(C3CC3)c(=O)[nH]2)cc1Cl` [Example 4-62, 6-{(E)-1-{3-Chloro-4-[4-(diethylamino)butoxy]phenyl}-2-[(2R)-5-oxopyrrolidin-2-yl]ethenyl}-3-cyclopropylpyridin-2(1H)-one]: the EC50 fell in the range of 0.01 to 0.5 µM. `Cc1cc(C(C[C@H]2CCC(=O)N2)c2ccc(C3CC3)c(=O)[nH]2)ccc1F` (single isomer, unassigned) [Example 4-224] came in with an EC50 of 3 to 10 µM.

The molecule `CC(C)(C)c1ccc(/C(=C\CN2CCCCCC2=O)c2ccc(Cl)c(=O)[nH]2)cc1` [Example 6-6, 1-[(2E)-3-(4-tert-Butylphenyl)-3-(5-chloro-6-oxo-1,6-dihydropyridin-2-yl)prop-2-en-1-yl]azepan-2-one] came in with an EC50 of 0.5 to 3 µM.
